Columns and labels:
[1] = Fraction unbound in monkey plasma; format: ADME, cell-free, Macaca mulatta; settings: rhesus monkey
[2] = molecular target: T1, Ectonucleoside triphosphate diphosphohydrolase 3 (Homo sapiens, UniProt O75355); test: Inhibition of NTPDase 3 (unknown origin) expressed in CHO cells using ATP as substrate preincubated for 1 hr followed by substrate addition and measured after 50 mins by PiColorLock gold reagent based colorimetric assay; format: cell-based
T1 sequence (O75355 whole entry): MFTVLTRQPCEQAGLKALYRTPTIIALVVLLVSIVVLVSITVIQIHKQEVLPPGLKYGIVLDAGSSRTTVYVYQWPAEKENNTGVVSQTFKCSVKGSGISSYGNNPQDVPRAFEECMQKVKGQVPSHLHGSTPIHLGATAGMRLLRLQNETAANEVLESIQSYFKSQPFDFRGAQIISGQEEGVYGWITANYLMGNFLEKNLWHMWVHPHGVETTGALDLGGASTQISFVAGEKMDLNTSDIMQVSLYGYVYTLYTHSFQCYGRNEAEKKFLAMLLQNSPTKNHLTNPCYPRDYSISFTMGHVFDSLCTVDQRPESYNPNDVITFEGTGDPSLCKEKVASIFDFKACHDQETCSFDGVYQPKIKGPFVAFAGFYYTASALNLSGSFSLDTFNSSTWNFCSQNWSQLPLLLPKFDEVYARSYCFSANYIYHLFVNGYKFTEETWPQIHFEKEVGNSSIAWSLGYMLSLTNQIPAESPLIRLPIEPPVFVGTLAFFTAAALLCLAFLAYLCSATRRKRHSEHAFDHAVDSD

[3] = Clearance in mouse at 0.5 mg/kg, iv; format: ADME, organism-based; settings: in vivo
[4] = molecular target: T2, Ectonucleoside triphosphate diphosphohydrolase 1 (Homo sapiens, UniProt P49961); test: Inhibition of CD39 (unknown origin)
T2 sequence (P49961 whole entry): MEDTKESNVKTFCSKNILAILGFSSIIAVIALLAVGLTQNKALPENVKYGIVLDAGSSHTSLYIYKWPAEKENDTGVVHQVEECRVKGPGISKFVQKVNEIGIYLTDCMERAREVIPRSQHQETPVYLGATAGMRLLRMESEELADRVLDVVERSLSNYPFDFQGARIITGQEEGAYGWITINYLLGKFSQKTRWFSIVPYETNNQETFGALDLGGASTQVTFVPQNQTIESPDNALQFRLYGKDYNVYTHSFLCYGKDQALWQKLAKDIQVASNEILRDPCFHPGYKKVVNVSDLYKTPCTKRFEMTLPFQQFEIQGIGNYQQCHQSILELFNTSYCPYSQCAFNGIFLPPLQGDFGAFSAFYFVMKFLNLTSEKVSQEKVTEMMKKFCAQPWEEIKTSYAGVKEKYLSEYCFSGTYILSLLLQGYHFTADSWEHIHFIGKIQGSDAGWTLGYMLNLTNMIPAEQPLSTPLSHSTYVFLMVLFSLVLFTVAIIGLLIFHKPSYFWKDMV

[5] = Clearance in Sprague-Dawley rat at 0.5 mg/kg, iv; format: ADME, organism-based; settings: in vivo
[6] = Clearance in dog at 0.5 mg/kg, iv; format: ADME, organism-based, Canis lupus familiaris; settings: in vivo
[7] = molecular target: T3, Ectonucleoside triphosphate diphosphohydrolase 2 (Homo sapiens, UniProt Q9Y5L3); test: Inhibition of NTPDase 2 (unknown origin) expressed in CHO cells using ATP as substrate preincubated for 1 hr followed by substrate addition and measured after 50 mins by PiColorLock gold reagent based colorimetric assay; format: cell-based
T3 sequence (Q9Y5L3 whole entry): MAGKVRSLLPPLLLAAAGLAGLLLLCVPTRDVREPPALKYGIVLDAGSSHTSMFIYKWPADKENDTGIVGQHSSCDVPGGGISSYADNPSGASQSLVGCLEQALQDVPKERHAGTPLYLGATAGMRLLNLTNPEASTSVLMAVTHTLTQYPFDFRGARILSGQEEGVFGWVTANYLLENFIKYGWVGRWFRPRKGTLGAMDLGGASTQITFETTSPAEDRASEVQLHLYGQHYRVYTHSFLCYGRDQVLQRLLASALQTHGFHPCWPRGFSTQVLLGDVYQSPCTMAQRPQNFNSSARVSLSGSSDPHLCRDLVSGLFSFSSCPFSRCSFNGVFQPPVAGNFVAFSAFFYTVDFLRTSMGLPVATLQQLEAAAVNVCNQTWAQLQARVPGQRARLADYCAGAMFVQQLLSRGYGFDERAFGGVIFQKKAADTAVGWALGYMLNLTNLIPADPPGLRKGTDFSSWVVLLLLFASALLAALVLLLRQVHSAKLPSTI

[8] = molecular target: T4, Ectonucleoside triphosphate diphosphohydrolase 8 (Homo sapiens, UniProt Q5MY95); test: Inhibition of NTPDase 8 (unknown origin) expressed in CHO cells using ATP as substrate preincubated for 1 hr followed by substrate addition and measured after 50 mins by PiColorLock gold reagent based colorimetric assay; format: cell-based
T4 sequence (Q5MY95 whole entry): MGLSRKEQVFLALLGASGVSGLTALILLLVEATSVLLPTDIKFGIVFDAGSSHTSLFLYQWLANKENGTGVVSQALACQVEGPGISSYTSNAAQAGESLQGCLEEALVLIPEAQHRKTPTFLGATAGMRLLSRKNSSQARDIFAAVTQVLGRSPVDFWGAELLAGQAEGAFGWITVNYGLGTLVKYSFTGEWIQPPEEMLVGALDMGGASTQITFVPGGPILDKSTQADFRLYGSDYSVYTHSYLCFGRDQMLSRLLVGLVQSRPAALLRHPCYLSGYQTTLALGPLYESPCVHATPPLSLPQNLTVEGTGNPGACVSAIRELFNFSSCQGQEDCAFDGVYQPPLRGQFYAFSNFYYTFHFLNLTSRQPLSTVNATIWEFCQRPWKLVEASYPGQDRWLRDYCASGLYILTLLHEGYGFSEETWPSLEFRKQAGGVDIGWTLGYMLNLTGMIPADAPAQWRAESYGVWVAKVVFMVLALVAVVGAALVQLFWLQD

[9] = Volume of distribution at steady state in Sprague-Dawley rat at 0.5 mg/kg, iv; format: ADME, organism-based; settings: in vivo, read-out: Vdss
[10] = Volume of distribution at steady state in monkey at 0.5 mg/kg, iv; format: ADME, organism-based, Macaca mulatta; settings: rhesus monkey, in vivo, read-out: Vdss
[11] = Volume of distribution at steady state in dog at 0.5 mg/kg, iv; format: ADME, organism-based, Canis lupus familiaris; settings: in vivo, read-out: Vdss
[12] = Volume of distribution at steady state in mouse at 0.5 mg/kg, iv; format: ADME, organism-based; settings: in vivo, read-out: Vdss
[13] = Clearance in monkey at 0.5 mg/kg, iv; format: ADME, organism-based, Macaca mulatta; settings: rhesus monkey, in vivo
[14] = Half life in Sprague-Dawley rat at 0.5 mg/kg, iv; format: ADME, organism-based; settings: in vivo
[15] = Fraction unbound in Sprague-Dawley rat plasma; format: ADME, cell-free
[16] = Fraction unbound in mouse plasma; format: ADME, cell-free; set-up: dose or concentration left out as unconfirmed

| Compound | fraction unbound [1] | IC50 [2] [µM] | clearance [3] [L/h/kg] | IC50 [4] [µM] | clearance [5] [L/h/kg] | clearance [6] [L/h/kg] | IC50 [7] [µM] | IC50 [8] [µM] | Vd [9] [L/kg] | Vd [10] [L/kg] | Vd [11] [L/kg] | Vd [12] [L/kg] | clearance [13] [L/h/kg] | half-life [14] [h] | fraction unbound [15] | fraction unbound [16] |
| --- | --- | --- | --- | --- | --- | --- | --- | --- | --- | --- | --- | --- | --- | --- | --- | --- |
| C[C@H](Nc1cc(Cl)nc2c1cnn2[C@@H]1O[C@H](COP(=O)(O)CP(=O)(O)O)[C@@H](O)[C@H]1O)c1ccc(F)cc1 | 0.0034 | > 10 | 0.015 | > 10 | 0.009 | 0.034 | > 10 | > 10 | 0.12 | 0.078 | 0.63 | 0.11 | 0.0017 | 9.6 | 0.0016 | 0.0065 |
| C[C@H](Nc1cc(Cl)nc2c1cnn2[C@@H]1O[C@H](COP(=O)(O)CP(=O)(O)O)[C@@H](O)[C@H]1O)c1ccccc1F | 0.0059 | > 10 | 0.025 | > 10 | 0.02 | 0.05 | > 10 | > 10 | 0.12 | 0.099 | 1.3 | 0.12 | 0.0025 | 5.3 | 0.0017 | 0.0089 |
| C[C@H](Nc1nc(Cl)nc2c1cnn2[C@@H]1O[C@H](COP(=O)(O)CP(=O)(O)O)[C@@H](O)[C@H]1O)c1ccccc1 | 0.002 | > 10 | 0.076 | > 10 | 0.064 | 0.071 | > 10 | > 10 | 0.12 | 0.096 | 0.84 | 0.18 | 0.0024 | 1.7 | 0.0095 | 0.029 |
